Common to all, as to assay: Aminoacylation Assay
Common to all, as to settings: pH 8

Experiment [1] concerns the target Phenylalanine--tRNA ligase alpha/beta subunit (Escherichia coli (strain K12), UniProt P07395+P08312). As for the experimental part: (§1) Compounds were solubilized in DMSO. Serial 2-fold dilutions covering two concentration ranges, 10 mM to 19.5 μM and 100 μM to 195 nM, were prepared. 0.6 μl/well of the diluted compound solutions (50× the final assay concentration) were added to white 384-well polystyrene assay plates (Thermo Fisher Scientific/Matrix Technology Corp., Hudson, NH). Uninhibited control wells (MAX)received 2 μl of 30% (v/v) DMSO. Baseline wells (MIN) received 2 μl of a solution containing 30% (v/v)DMSO and 15 mM L-phenylalanine (Sigma-Aldrich). Assays were performed in a buffer consisting of 50 mM Tris-HCl (pH 8.0), 50 mM NH4Cl, 10 mM MgCl2, 2 mM DTT, 0.005% Tween 20 (Surfact-Amps-20, Thermo Fisher Scientific/Pierce Protein Research products, Suwanee, GA), and 0.1 mM EDTA-NaOH (pH 8.0). Compounds were preincubated with 15 μl/well of either 2 nM E. coli PheRS, 2 nM H. influenzae PheRS, or 0.8 nM P. aeruginosa PheRS in buffer for 30 min at 2× final assay concentrations. The reactions were initiated with 15 μl/well of a 2× substrate solution in buffer containing 2 μM E. coli phenylalanine tRNA (Sigma-Aldrich), 100 μM ATP, and 2 μM [3H]Phe with a specific radioactivity of 6.3 Ci/mmol (PerkinElmer Life Sciences). The reactions were quenched after 30 min with 15 μl/well of a solution containing 4 mg/ml PVT/PEI/WGA type A SPA beads (PerkinElmer Life Sciences), 262 mM sodium citrate (pH 2.0), and 150 mM NaCl. The plates were sealed with transparent film (PerkinElmer Life Sciences). The beads were allowed to settle for a minimum of 2 h before scintillation counting with a Top-Count plate reader (PerkinElmer Life Sciences). [3H] counts (CPM) for aminoacylated tRNA were measured for 1 min/well.

The target in experiment [2] is Phenylalanine--tRNA ligase alpha/beta subunit (Pseudomonas aeruginosa (strain ATCC 15692 / PAO1 / 1C / PRS 101 / LMG12228), UniProt A0A8B5A132+Q9I0A4). As to the method: as §1
Chain of Phenylalanine--tRNA ligase alpha/beta subunit (Pseudomonas aeruginosa (strain ATCC 15692 / PAO1 / 1C / PRS 101 / LMG12228), UniProt A0A8B5A132+Q9I0A4) (A0A8B5A132 whole entry): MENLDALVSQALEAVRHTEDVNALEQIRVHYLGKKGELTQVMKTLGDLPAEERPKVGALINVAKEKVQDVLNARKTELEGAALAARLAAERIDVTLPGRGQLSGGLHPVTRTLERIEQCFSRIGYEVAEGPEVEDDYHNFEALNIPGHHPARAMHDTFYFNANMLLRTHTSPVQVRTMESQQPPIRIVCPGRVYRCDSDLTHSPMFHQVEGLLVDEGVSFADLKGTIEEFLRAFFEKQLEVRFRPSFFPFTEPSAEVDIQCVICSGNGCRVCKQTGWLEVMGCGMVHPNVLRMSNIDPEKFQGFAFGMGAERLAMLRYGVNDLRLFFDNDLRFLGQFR
Chain of Phenylalanine--tRNA ligase alpha/beta subunit (Pseudomonas aeruginosa (strain ATCC 15692 / PAO1 / 1C / PRS 101 / LMG12228), UniProt A0A8B5A132+Q9I0A4) (Q9I0A4 whole entry): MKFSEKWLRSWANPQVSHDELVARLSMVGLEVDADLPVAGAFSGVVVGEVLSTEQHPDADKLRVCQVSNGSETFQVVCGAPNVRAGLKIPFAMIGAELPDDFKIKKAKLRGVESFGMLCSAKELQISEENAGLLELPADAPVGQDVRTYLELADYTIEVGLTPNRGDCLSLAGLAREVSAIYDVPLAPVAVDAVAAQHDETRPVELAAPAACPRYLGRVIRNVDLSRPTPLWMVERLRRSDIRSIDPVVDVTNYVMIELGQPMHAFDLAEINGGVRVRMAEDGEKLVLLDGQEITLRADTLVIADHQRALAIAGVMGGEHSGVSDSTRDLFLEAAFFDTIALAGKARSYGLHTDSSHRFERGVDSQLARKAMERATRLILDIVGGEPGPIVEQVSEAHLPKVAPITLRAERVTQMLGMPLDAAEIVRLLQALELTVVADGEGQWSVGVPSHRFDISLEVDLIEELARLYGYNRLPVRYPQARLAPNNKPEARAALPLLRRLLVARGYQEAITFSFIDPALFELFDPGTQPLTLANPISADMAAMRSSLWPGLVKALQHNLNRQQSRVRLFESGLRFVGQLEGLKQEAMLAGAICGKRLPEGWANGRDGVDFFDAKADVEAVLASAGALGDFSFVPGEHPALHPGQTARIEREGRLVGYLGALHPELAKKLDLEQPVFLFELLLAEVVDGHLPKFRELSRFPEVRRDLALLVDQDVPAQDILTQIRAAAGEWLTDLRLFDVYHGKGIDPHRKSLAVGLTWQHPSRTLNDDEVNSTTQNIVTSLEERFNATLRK
Experiment [3] addresses Phenylalanine--tRNA ligase alpha/beta subunit (Pseudomonas aeruginosa, UniProt Q9I0A3+Q9I0A4). As for the experimental part: as §1

As usually defined, the IC50 is the midpoint of a concentration-inhibition curve. A lower IC50 goes with inhibition by little substance.

Chain of Phenylalanine--tRNA ligase alpha/beta subunit (Pseudomonas aeruginosa, UniProt Q9I0A3+Q9I0A4) (Q9I0A3 whole entry): as the sequence (A0A8B5A132 whole entry) above
Chain of Phenylalanine--tRNA ligase alpha/beta subunit (Pseudomonas aeruginosa, UniProt Q9I0A3+Q9I0A4) (Q9I0A4 whole entry): as the sequence (Q9I0A4 whole entry) above
Chain of Phenylalanine--tRNA ligase alpha/beta subunit (Escherichia coli (strain K12), UniProt P07395+P08312) (P08312 whole entry): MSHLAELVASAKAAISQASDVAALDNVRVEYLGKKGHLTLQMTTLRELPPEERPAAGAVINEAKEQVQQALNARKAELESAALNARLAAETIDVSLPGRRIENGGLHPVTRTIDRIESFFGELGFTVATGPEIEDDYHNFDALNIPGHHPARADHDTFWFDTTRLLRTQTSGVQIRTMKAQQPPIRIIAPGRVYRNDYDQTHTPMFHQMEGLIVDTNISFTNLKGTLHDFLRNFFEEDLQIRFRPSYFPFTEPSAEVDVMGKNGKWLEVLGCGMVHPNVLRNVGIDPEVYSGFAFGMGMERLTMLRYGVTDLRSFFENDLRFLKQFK
Chain of Phenylalanine--tRNA ligase alpha/beta subunit (Escherichia coli (strain K12), UniProt P07395+P08312) (P07395 whole entry): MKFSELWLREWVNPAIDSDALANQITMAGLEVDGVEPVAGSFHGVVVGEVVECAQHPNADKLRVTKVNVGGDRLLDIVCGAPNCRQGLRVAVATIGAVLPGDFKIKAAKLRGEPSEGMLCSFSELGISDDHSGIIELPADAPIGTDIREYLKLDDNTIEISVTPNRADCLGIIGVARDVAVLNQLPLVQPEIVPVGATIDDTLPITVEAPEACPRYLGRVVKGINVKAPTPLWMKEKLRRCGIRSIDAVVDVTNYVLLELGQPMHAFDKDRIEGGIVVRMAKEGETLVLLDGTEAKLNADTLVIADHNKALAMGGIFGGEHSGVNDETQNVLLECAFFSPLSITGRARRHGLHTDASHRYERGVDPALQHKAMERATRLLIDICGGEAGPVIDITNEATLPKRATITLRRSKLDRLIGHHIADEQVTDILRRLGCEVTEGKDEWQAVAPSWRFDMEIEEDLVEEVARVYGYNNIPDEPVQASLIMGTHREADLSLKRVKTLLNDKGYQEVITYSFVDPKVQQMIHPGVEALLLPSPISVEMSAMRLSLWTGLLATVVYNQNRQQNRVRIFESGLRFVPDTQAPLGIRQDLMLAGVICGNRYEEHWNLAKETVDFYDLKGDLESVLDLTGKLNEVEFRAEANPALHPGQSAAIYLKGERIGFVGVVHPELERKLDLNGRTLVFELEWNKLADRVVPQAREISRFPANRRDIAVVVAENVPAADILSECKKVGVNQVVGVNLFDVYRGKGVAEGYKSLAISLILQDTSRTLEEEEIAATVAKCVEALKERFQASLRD

As to `O=C(Nc1cccc(S(=O)(=O)N2CCN(c3ccccn3)CC2)c1)Nc1nccs1` [1-(3-(4-(Pyridin-2-yl)piperazin-1-ylsulfonyl)phenyl)-3-(thiazol-2-yl)urea (1a)], the figures for the IC50 in experiment [1] and in experiment [2] were 0.0027 µM and 0.022 µM, respectively.
Consider `CNC(=O)COc1cccc(Nc2cc(Cl)ccn2)c1` [2-(3-(4-Chloropyridin-2-ylamino)phenoxy)-N-methylacetamide (2a)], for which the values for the IC50 in experiment [1] and in experiment [2] were 1.4 µM and 82 µM, respectively.
For `CNC(=O)COc1cccc(Nc2cc(C#N)ccn2)c1` [2-(3-(4-Cyanopyridin-2-ylamino)phenoxy)-N-methylacetamide (2b)], in that order: 0.56 µM and 41 µM.
`COc1cccc(-c2ncc(C(F)(F)F)[nH]2)c1` [2-(3-methoxyphenyl)-5-(trifluoromethyl)-1H-imidazole (3d)]: the concentration for half-maximal inhibition (IC50) in experiment [1] was 16 µM; in experiment [3] it was greater than 200 µM.
With `NS(=O)(=O)CCNC(=O)c1csc(COc2ccc(Cl)cc2)n1` [2-((4-Chlorophenoxy)methyl)-N-(2-sulfamoylethyl)thiazole-4-carboxamide (4c)], the half-maximal inhibitory concentration (IC50) in experiment [1] was 0.19 µM; in experiment [2], 26 µM.
In the case of `N#CCNC(=O)c1csc(COc2ccc(Cl)cc2)n1` [2-((4-Chlorophenoxy)methyl)-N-(cyanomethyl)thiazole-4-carboxamide (4b)], the IC50 in experiment [1] is 0.1 µM; in experiment [2], 13 µM.
For `O=C(COc1cccc(Nc2cc(Cl)ccn2)c1)NC1CCS(=O)(=O)C1` (stereo unspecified) [2-[3-[(4-Chloro-2-pyridyl)amino]phenoxy]-N-(1,1-dioxothiolan-3-yl)acetamide (2c)] the same measures were 0.1 µM and 34 µM.
Consider `COc1cccc(-c2cc(C(F)(F)F)n[nH]2)c1` [5-(3-Methoxyphenyl)-3-(trifluoromethyl)-1H-pyrazole (3a)], for which the half-maximal inhibitory concentration (IC50) in experiment [1] was 0.06 µM; in experiment [3], 10 µM.
For `CCOC(=O)COc1cccc(-c2cc(C(F)F)n[nH]2)c1` [Ethyl 2-(3-(3-(difluoromethyl)-1H-pyrazol-5-yl)phenoxy)acetate (3c)], in that order: 1 µM and 59 µM.
For `CCOC(=O)COc1cccc(-c2cc(C(F)(F)F)[nH]n2)c1` [Ethyl 2-(3-(5-(trifluoromethyl)-1H-pyrazol-3-yl)phenoxy)acetate (3b)] the same measures were 0.08 µM and 11 µM.
Regarding `Cc1ccc(OCc2nc(C(=O)NC3CCS(=O)(=O)C3)cs2)cc1` (stereo unspecified) [N-(1,1-dioxothiolan-3-yl)-2-[(4-methylphenoxy)methyl]thiazole-4-carboxamide (4a)], the results for the half-inhibitory concentration (IC50) in experiment [1] and in experiment [2] were 1.4 µM and 80 µM, respectively.
In the case of `CS(=O)(=O)C1(CCNC(=O)COc2cccc(-c3cc(C(F)(F)F)[nH]n3)c2)CC1` [N-(2-(1-(methylsulfonyl)cyclopropyl)ethyl)-2-(3-(5-(trifluoromethyl)-1H-pyrazol-3-yl)phenoxy)acetamide (3e)], the half-inhibitory concentration (IC50) stood at 0.07 µM in experiment [1] and 4.2 µM in experiment [3].
For `O=C(Nc1cccc(S(=O)(=O)NCCc2c[nH]c3ccccc23)c1)Nc1nccs1` [N-(2-(1H-indol-3-yl)ethyl)-3-(3-thiazol-2-ylureido)benzenesulfonamide (1b)] the same measures were 0.0022 µM and 0.013 µM.

The values above are taken from BindingDB's records for doi:10.1074/jbc.M114.574061 (AstraZeneca R&D Boston, 2014).
